Data on ten substances can be found in patent US10487307B2, “Culture method for pluripotent stem cells” (FUJIFILM CORPORATION, priority 2013, dated 2019).

The test system of one experiment is human iPS cells. In words: Cell adhesiveness evaluation 2 (synthetic peptides added to cells seeded on natural vitronectin). Type of experiment: cell-based. The following applies: for adhesion of cells to the natural vitronectin on addition of peptide: 100 μM synthetic polypeptide; for Cell adhesion rate (%): 100 μM synthetic polypeptide in cell suspension, natural vitronectin surface 130 pmol/cm^2, 24 hours, no peptide = 100%, n=3. The procedure: The polypeptides shown in Table 8 were synthesized by an Fmoc solid-phase synthesis method. A surface onto which natural vitronectin was adsorbed at a concentration of 130 pmol/cm^2 was prepared, and then a cell suspension to which 100 μM of the aforementioned synthetic polypeptides were added was seeded into wells at a ratio of 30,000 cells/well. The number of adhesive cells 24 hours after seeding was calculated in the same manner as in <Cell adhesiveness evaluation 1>, and the results are shown in Table 8. In Table 8, the cell adhesion rate is expressed as a ratio calculated by regarding the cell adhesion rate obtained by using a culture solution not containing the synthetic polypeptides as being 100%. n=3.

In experiment [1] the test system is human iPS cells ("Tic"). In words: Cell adhesiveness evaluation 1 (ALP activity of adhesive iPS cells). The following applies: 30,000 cells/well, 24 hours, natural vitronectin (sample 15) = 100%. Type of experiment: cell-based. The protocol:
The cell adhesiveness of human iPS cells (“Tic”: Cell No. JCRB 1331: from National Institute of Biomedical Innovation. [567-0085, 7-6-8 Asagi Saito Ibaraki-City Osaka]) with respect to the aforementioned polypeptides was evaluated in the following manner.
As feeder cells for retaining the human iPS cells, EmbryoMax (registered trademark) (early mouse embryonic fibroblasts: resistant to hygromycin, treated with mitomycin C, derived from C57/BL6, third passage) (Millipore Corporation) was used. By using DMEM (Invitrogen) and a 10% (v/v) fetal bovine serum medium, the feeder cells were cultured for 24 hours and attached to a T25 flask (Corning Incorporated). As a medium for the human iPS cells, the one obtained by adding FGF-2 (Sigma-Aldrich Co, LLC.) to a medium composed as shown in Table 6 at a final concentration of 10 ng/ml was used.
By using the aforementioned medium, the human iPS cells were retained and cultured in a 5% (v/v, the same unit will be used hereinafter) CO2 incubator at 37° C. Except for the day after the seeding of the iPS cells, the medium was replaced every day. The subculture operation was performed by exfoliating the cells by using Dispase II (neutral protease Grade II, Roche) and separating the cells in an appropriate size by a pipetting operation.
The iPS cells cultured as described above were treated with TrypLE Select (Invitrogen) for 5 minutes at 37° C. and separated into a single cell. After being subjected to centrifugation for 2 minutes at 300 rpm, the cells were collected and suspended in TeSR2 (a medium not containing a heterogeneous animal-derived component and a serum component, STEMCELL Technologies.) containing Y-27362 ((R)-(+)-trans-N-(4-pyridyl)-4-(1-aminoethyl)-cyclohexane carboxamide.2HCl.H2O, an Rho binding kinase inhibitor, Wako Pure Chemical Industries, Ltd.) at a final concentration of 10 μM.
Each of RCP-1 to RCP-11, RCP-21, RCP-25, and RCP-26 as control, human vitronectin (extracted from human serum, BD Biosciences), and recombinant laminin (rLaminin-5: Oriental Yeast Co., ltd. and Human Recombinant Laminin-511: BIOLAMINA AB) was added to and suspended in a predetermined buffer (a dialysis buffer used in <GRAVY value and aggregation characteristics> described above for RCP-1 to RCP-11, and PBS for RCP-21, RCP-25, human vitronectin, and recombinant laminin) at the concentration shown in Table 7, thereby preparing samples 1 to 17. The samples were added to the respective wells of a 96-well plate and adsorbed onto the plate by being held for 2 hours at 37° C.
Into the respective wells of the 96-well plate treated with the peptides, iPS cells were seeded at a cell density of 30,000 cells/well. After the cells were cultured for 24 hours, the nonadhesive cells were washed off with PBS, and only the adhesive cells were immobilized by using 4% (v/v) paraformaldehyde (Wako Pure Chemical Industries, Ltd.). By using an Attophos (registered trademark) AP Fluorescent Substrate System (Promega Corporation), the ALP activity was calculated, and from the calibration curve, the number of undifferentiated iPS cells having the ALP activity was calculated. In Table 7, the cell adhesion rate is expressed as a ratio calculated by regarding the cell adhesion rate obtained from the sample 15 using natural vitronectin as being 100%. n=3.

Experiment [2] deals with iPS cells. In words: Cell growth property evaluation 2 (2-mercaptoethanol concentration in Essential 8). The class given is cell-based, human. The following applies: for Cell growth rate: laminin 20 μg/ml, 72 hours. The procedure: A cell culture surface coated with RCP-11 was prepared in the same manner as in <Cell growth property evaluation 1> of Example 1. iPS cells collected in the same manner as in <Cell growth property evaluation 1> were suspended in the respective media composed as shown in Table 12 and seeded into wells at a cell density of 10,000 cells/well. After the cells were cultured for 72 hours, the number of cells were quantified in the same manner as in <Cell growth property evaluation 1>, and the cell growth properties were evaluated based on a cell growth rate which is a ratio calculated by regarding the number of cells cultured using RPC-11 as being 100%.

The subject of experiment [3] is iPS cells. Nature of the experiment: Growth evaluation, number of cells after 3 days. The following applies: added amount 1.28 μg/cm^2; 5,000 cells/well; sample 1 (RCP-1) = 100%. The class given is cell-based, human. The protocol: By adding RCP-1 to RCP-11 and Human Recombinant Laminin-511 as control at the concentration shown in Table 9, samples 1 to 12 were prepared. The samples were seeded into a 96-well plate, onto which each of the polypeptides was adsorbed in the same manner as in <Cell adhesiveness evaluation 1>, at a ratio of 5,000 cells/well and cultured for 3 days in a CO2 incubator at 37° C. The number of cells after 3 days was calculated in the same manner as in <Cell adhesiveness evaluation 1>. In Table 9, the number of cells after 3 days is expressed as a ratio calculated by regarding the number of cells obtained by using the sample 1 as being 100%.

For experiment [4], the system named is human iPS cells ("Tic"). In words: Cell growth property evaluation 1 (different media). The class given is cell-based. The following applies: for Cell growth rate: laminin 20 μg/ml, 72 hours, RCP-11 with Essential 8 = 100%, n=3. The procedure: Furthermore, for evaluation, human iPS cells (“Tic”) that were retention-cultured as described in <Cell adhesiveness evaluation 1> of reference example were treated with TrypLE Select (Invitrogen) for 5 minutes at 37° C. and separated into a single cell. After being subjected to centrifugation for 2 minutes at 300 rpm, the cells were collected, suspended in each medium, and used for the evaluation in each example. Herein, Y-27362 ((R)-(+)-trans-N-(4-pyridyl)-4-(1-aminoethyl)-cyclohexane carboxamide.2HCl.H2O, an Rho binding kinase inhibitor, Wako Pure Chemical Industries, Ltd.) was added to all of the media at a final concentration of 10 μM.
Each of RCP-11, RCP-5, and recombinant laminin (Human Recombinant Laminin-511: BIOLAMINA AB) as control was added to and suspended in a predetermined buffer (a dialysis buffer used in <GRAVY value and aggregation characteristics> of reference examples for RCP-11 and RCP-5, and PBS for the recombinant laminin) at the final concentration shown in Table 11, thereby preparing polypeptide solutions. The polypeptide solutions were added to the respective wells of a plasma-treated 96-well plate made of polystyrene (BD Falcon) having a plasma-treated cell culture surface and held as they were so as to be adsorbed onto the plate for 2 hours at 37° C. In this way, a peptide-treated 96-well plate having a polypeptide-coated surface was obtained. The iPS cells suspended in the respective media shown in Table 11 were seeded into the respective wells of the obtained peptide-treated 96-well plate at a cell density of 10,000 cells/well. After the cells were cultured for 72 hours, nonadhesive cells were washed off with PBS, and only adhesive cells were immobilized using 4% by mass of paraformaldehyde (Wako Pure Chemical Industries, Ltd.). By using an Attophos (registered trademark) AP Fluorescent Substrate System (Promega Corporation), the ALP activity was calculated, and from the calibration curve, the number of undifferentiated iPS cells having the ALP activity was calculated. In Table 11, the cell adhesion rate is expressed as a ratio calculated by regarding the number of pluripotent stem cells after the culture for 72 hours in a combination of RCP-11 and Essential 8 as being 100%. n=3.
In Table 11, “% by mass” in the concentration of 2-meracptoethanol is a proportion (w/v %) of mass (g) of 2-meracptoethanol per 100 mL of the total volume of the medium at the time of culture.

For “EGFNVDKKCQCDELCSYYQS (Peptide designed for comparative tests (Peptide-3))”, in the experiment on human iPS cells, the “adhesion of cells to the natural vitronectin on addition of peptide” value (from here on “adhesion of cells”) is listed as “not hindered” and the “Cell adhesion rate (%)” value amounted to 102.5 ± 4.2%.
On to “CCTDYTAECKPQVTRGDVFT (Peptide designed for comparative tests (Peptide-5))”, for which, in the experiment on human iPS cells, the “adhesion of cells” value is given as “significantly hindered” and the “Cell adhesion rate (%)” value was determined as 70.5 ± 7.1%.
For the substance “Laminin-511: recombinant laminin (Human Recombinant Laminin-511: BIOLAMINA AB)”, the “Cell adhesion rate (%)” value in the experiment on human iPS cells ("Tic") [1] (added amount 5.0 μg/cm^2) was determined as 142.0%. In addition, the Cell growth rate in the experiment on iPS cells [2] (Essential8, 2-mercaptoethanol 0) is given as 45.9%; in the experiment with iPS cells [2] (Essential8, 2-mercaptoethanol 10 μM (0.0000078% by mass)), 48.6%; with iPS cells [2] (Essential8, 2-mercaptoethanol 10 μM (0.000078% by mass)), 48.1%; in the experiment with iPS cells [2] (Essential8, 2-mercaptoethanol 100 μM (0.00078% by mass)), 44.6%; in the experiment with iPS cells [2] (Essential8, 2-mercaptoethanol 1 mM (0.0078% by mass)), 40.9%; in the experiment with iPS cells [2] (Essential8, 2-mercaptoethanol 10 mM (0.078% by mass)), 39.3%. Also, the Cell growth rate in the experiment on human iPS cells ("Tic") [4] (medium Essential8, 2-mercaptoethanol 0) came to 45.9%; in the experiment with human iPS cells ("Tic") [4] (medium NutriStem, 2-mercaptoethanol 0) it was 98.8%; in the experiment with human iPS cells ("Tic") [4] (medium ReproFF2, 2-mercaptoethanol 102.4 μM (0.0008% by mass)) it was 93.9%; in the experiment on human iPS cells ("Tic") [4] (medium StemPro hESC SFM, 2-mercaptoethanol 100 μM (0.00078% by mass)) it was 103.7%; in the experiment with human iPS cells ("Tic") [4] (medium TeSR2, 2-mercaptoethanol 48.6 μM (0.00038% by mass)), 14.4%. In addition, the “dependence of cell growth properties on the concentration of 2-mercaptoethanol” value with iPS cells [2] (Table 12) is “such characteristics were not observed”. The “Number of cells after 3 days (%)” value with iPS cells [3] worked out at 56.8%. Moreover, the “cell growth properties with Essential 8 or NutriStem not containing 2-mercaptoethanol versus media containing it” value with human iPS cells ("Tic") [4] (Table 11) is “a clear correlation could not be confirmed”.
Take “TAECKPQVTRGDVFTMPEDE (Peptide designed for comparative tests (Peptide-6))”: in the experiment with human iPS cells, the “adhesion of cells” value was “significantly hindered” and the “Cell adhesion rate (%)” value was 52.7 ± 10.3%.
As for “DQESCKGRCTEGFNVDKKCQ (Peptide designed for comparative tests (Peptide-1))”, in the experiment on human iPS cells, the “adhesion of cells” value is recorded as “not hindered” and the “Cell adhesion rate (%)” value was 91.8 ± 1.2%.
For “DKKCQCDELCSYYQSCCTDY (Peptide designed for comparative tests (Peptide-4))”, in that order: “significantly hindered” and 63.8 ± 11.6%.
Regarding “TAECKPQVTRGEVFTMPEDE (Peptide designed for comparative tests (Peptide-8))”, in the experiment with human iPS cells, the “adhesion of cells” value is on record as “not hindered” and the “Cell adhesion rate (%)” value is on record as 83.8 ± 14.8%.
For “CCTDYTAECKPQVTRGEVFT (Peptide designed for comparative tests (Peptide-7))”, in the experiment on human iPS cells, the “adhesion of cells” value was “not hindered” and the “Cell adhesion rate (%)” value was 86.7 ± 7.1%.
For “KGRCTEGFNVDKKCQCDELC (Peptide designed for comparative tests (Peptide-2))”, in the experiment on human iPS cells, the “adhesion of cells” value was “not hindered” and the “Cell adhesion rate (%)” value is listed as 92.7 ± 19.6%.
As to “rLaminin-5: recombinant laminin (rLaminin-5: Oriental Yeast Co., ltd.)”, the “Cell adhesion rate (%)” value in the experiment on human iPS cells ("Tic") [1] (added amount 3.2 μg/cm^2) is given as 155.7%.
